According to patent US20260242360A1, “Novel Compound, and Pharmaceutical Composition for Prevention or Treatment of Cancer or Tumors Comprising Same” (Daewoong Pharmaceutical Co., Ltd., priority 2023, published 2026):

Legend:
Assay type in all cases: cell-based
NCI-H226 cells = experiment: Cell growth inhibition test (CellTiter-Glo), NCI-H226; settings: Homo sapiens, NCI-H226 cell line
Method: (§1) The cell growth for the compounds prepared in Examples was measured by CellTiter-Glo® Luminescednt Cell Viability (Promega, Catalog #G7571) method using NCI-H226 (addexbio), NCI-H28 (Korea Cell Line Bank) cell lines. This evaluation method is a method in which when luciferase enzyme is activated by ATP flowing out from living cells, it reacts with a luciferin substrate, and the enzyme activity at this time is measured to confirm cell viability.
(§2) Specifically, NCI-H226, and NCI-H28 cells were prepared in 100 μL of cell culture medium (RPMI medium, 10% FBS, 1% P/S, 4.5 g/L D-Glucose, 2.383 g/L HEPES Buffer, L-Glutamine, 1.5 g/L Sodium Bicarbonate, 110 mg/L Sodium pyruvate) in a white clear bottom 96-well microplate. The prepared plate was incubated in a 5% CO2 incubator at 37° C. for 24 hours, and then the previously prepared compounds of Examples were finally treated at concentrations of 0.0005, 0.005, 0.05, 0.5 and 5 μM, which was repeated three times for all treatment solutions.
(§3) The plates treated with the compounds of Examples were incubated in a 5% CO2 incubator at 37° C. 100 μL/well of the substrate aqueous solution containing luciferin was added to a white clear-bottom 96 well microplate, thereby initiating an enzyme reaction. The reaction was performed at room temperature in the dark for 10 minutes, and the luminescence was measured using a Flexstation3 multi-mode microplate reader. In accordance with the instructions for the CellTiter-Glo™ Luminescednt Cell Viability, the luciferase enzyme activity, which represents the amount of ATP, was measured by a chemiluminescence method, and the inhibitory activity of the compounds according to the present disclosure was calculated. The results of each compound were analyzed using Microsoft Excel, and the IC50 values were calculated using GraphPad Prism software.

[1] = test system: transcription factor TEAD; experiment: Activity inhibition test of transcription factor TEAD (ONE-Glo luciferase assay, Hippo Pathway TEAD reporter-MCF7 cell line); settings: Homo sapiens; TEAD Reporter-MCF7 cells, 24 hours treatment, luciferase luminescence
Method: The transcription factor TEAD activity of the compounds prepared in Examples was measured by the ONE-Glo™ Luciferase assay (Promega, Catalog #E6110) method using the Hippo Pathway TEAD reporter-MCF7 recombinant cell line (BPS Bioscience, Catalog #60618).
Specifically, the TEAD Reporter-MCF7 cell line contains the firefly luciferase gene whose expression is regulated under the control of TEAD response elements in the MCF7, which is a human breast cancer cell line. In the cell line, a non-phosphorylated YAP/TAZ exists in the nucleus in a non-stressed condition, which continuously induces expression of the luciferase reporter.
TEAD Reporter-MCF7 cells were prepared in 100 μL of cell culture medium (MEM medium, 10% FBS, 1% P/S, 400 μg/mL Geneticin, 1% […], 1 mM NA pyruvate, 10 μg/mL Insulin) in a white clear bottom 96-well microplate. The prepared plate was incubated in a 5% CO2 incubator at 37° C. for 24 hours, and then the previously prepared compounds of Examples were finally treated at concentrations of 0.0005, 0.005, 0.05, 0.5 and 5 μM, which were repeated three times for all treatment solutions. The plates treated with the compounds of Examples were incubated in a 5% CO2 incubator at 37° C. for 24 hours. 100 μL/well of the substrate aqueous solution containing luciferin was added to a white clear-bottom 96 well microplate, thereby initiating an enzyme reaction. The reaction was performed at room temperature for 5 minutes, and the luminescence (integration time 1000 ms) was measured using a Flexstation3 multi-mode microplate reader. In accordance with the instructions for the ONE-Glo™ Luciferase Assay, the luciferase enzyme activity, which represents the activity of the transcription factor TEAD, was measured by a chemiluminescence method, and the inhibitory activity of the compound according to the present disclosure was calculated. The results of each compound were analyzed using Microsoft Excel, and the IC50 values were calculated by GraphPad Prism software.

NCI-H28 cells = experiment: Cell growth inhibition test (CellTiter-Glo), NCI-H28; settings: Homo sapiens, NCI-H28 cell line
Method: as §1, §2, §3

Structure (SMILES): C=CC(=O)Nc1cc(-c2cn(C)cn2)c2[nH]c(-c3cc(F)c(Cl)c(F)c3)cc2c1 [Example 46, N-(2-(4-chloro-3,5-difluorophenyl)-7-(1-methyl-1H-imidazol-4-yl)-1H-indol-5-yl)acrylamide]
- IC50 (NCI-H226 cells): 79 nM
- IC50 [1]: 90 nM
- IC50 (NCI-H28 cells): 1360 nM

Structure (SMILES): C=CC(=O)Nc1cc(-c2cn(CC)cn2)c2[nH]c(-c3cc(F)c(F)c(F)c3)cc2c1 [Example 50, N-(7-(1-ethyl-1H-imidazol-4-yl)-2-(3,4,5-trifluorophenyl)-1H-indol-5-yl)acrylamide]
- IC50 (NCI-H226 cells): 15.4 nM
- IC50 [1]: 27 nM
- IC50 (NCI-H28 cells): > 5000 nM

Structure (SMILES): C=CC(=O)Nc1cc(-c2cn(CC)cn2)c2[nH]c(-c3ccc(F)cc3)cc2c1 [Example 51, N-(7-(1-ethyl-1H-imidazol-4-yl)-2-(4-fluorophenyl)-1H-indol-5-yl)acrylamide]
- IC50 (NCI-H226 cells): 7.6 nM
- IC50 [1]: 48 nM
- IC50 (NCI-H28 cells): 2540 nM

Structure (SMILES): C=CC(=O)Nc1cc(-c2cn(C)cn2)c2[nH]c(-c3ccc(Br)cc3)cc2c1 [Example 52, N-(2-(4-bromophenyl)-7-(1-methyl-1H-imidazol-4-yl)-1H-indole-5-yl)acrylamide]
- IC50 (NCI-H226 cells): 58 nM
- IC50 [1]: 346 nM
- IC50 (NCI-H28 cells): 868 nM
